{
  "source": "patent US12312625B2",
  "about": "“Engineering strain producing cordycepin and its derivative 3′-deoxyinosine, its preparation method and application” (DALIAN UNIVERSITY, priority 2022, dated 2025)",
  "tested_on": "Pichia pastoris GS115 strain",
  "assay": "Cordycepin tolerance test (growth curves of yeast in YPD medium with cordycepin)",
  "format": "cell-based",
  "details": "30° C., biomass measured every 2h, FIG. 5",
  "description": "In order to detect the tolerance of yeast strains to cordycepin, the inventor thus provides a method of detecting the tolerance of yeast strains to cordycepin. The Pichia pastoris GS115 strain is activated and inoculated into a 96-deep porous plate containing YPD medium, with the inoculation concentration at about OD600=0.4, supplemented with the cordycepin solutions under different concentrations (0.1, 1.0, 2.0, 5.0 g·L^−1). The broth without cordycepin is used as the control, and the porous plate is placed into BioScreene, cultured by shaking at constant temperature of 30° C., and the biomass of the strain is measured every 2h. Triplicates are set in each group, and an average value of the triplicate is calculated to draw a growth curve of yeast strains under the effect of different concentrations of cordycepin. […] As mentioned above, the cordycepin yield has exceeded 2.0 g/L, so the stress tolerance of the strain needs to be considered.",
  "data": [
    {"smiles": "Nc1ncnc2c1ncn2[C@@H]1O[C@H](CO)C[C@H]1O", "note": "[cordycepin]", "values": [
      {"measurement": "growth of yeast strains", "setting": "YPD medium containing 2-5 g/L cordycepin", "result": "severely inhibited"},
      {"measurement": "growth of yeast strains", "setting": "YPD medium, 1 g/L cordycepin", "result": "slight impact"},
      {"measurement": "growth of yeast strains", "setting": "YPD medium, cordycepin below 0.1 g/L", "result": "almost has no effect"}
    ]}
  ]
}
